Assay results: patent US6339151B1, “Enzyme catalyzed therapeutic agents” (NewBiotics, Inc., priority 1998, dated 2002)

Columns and labels:
[1] = test system: Colon Epithelium (CCD18co); assay: Alamar Blue Assay; assay type: cell-based; details: Homo sapiens, CCD-18Co
Skin Fibroblast (DET551) = assay: Alamar Blue Assay; assay type: cell-based
Lung Epithelium (W138) = assay: Alamar Blue Assay; assay type: cell-based
Breast (MCF7) = assay: Alamar Blue Assay; assay type: cell-based; details: Homo sapiens
Breast (MDA 468) = assay: Alamar Blue Assay; assay type: cell-based
Sarcoma (Saos 2) = assay: Alamar Blue Assay; assay type: cell-based; details: Homo sapiens
Normal Cells = assay: Alamar Blue Assay, mean over normal cells; assay type: cell-based; details: mean of the three normal cell types; read-out: mean IC50 (X̄)
Tumor Cells = assay: Alamar Blue Assay, mean over tumor cells; assay type: cell-based; details: mean of the three tumor cell lines; read-out: mean IC50 (X̄)
[2] = test system: CCD18co (normal colon epithelium); assay: Crystal violet cell proliferation assay; assay type: cell-based, human; details: for IC50: Homo sapiens, CCD-18Co
Experimental: (§1) Two cell lines, H630R10 (Copur, et al. (1995)) and normal colon epithelial cells, CCD18co (ATCC) were used in these assays. The H630P (Copur et al. (1995)) cell line was selected for resistance to 10 μM 5-FU to give rise to H630R10. The characterization of these cell lines which expresses an elevated level of the TS enzyme. A normal colon epithelial cell type CCD18co (available from the ATCC) was used for comparison with H630R10 for sensitivity to test compounds.
(§2) The ability of the test compounds to block proliferation of cells was determined by the crystal violet procedure (Sugarman et al. (1985) and Antelman et al. (1995)).
(§3) Compounds were dissolved in dimethyl sulfoxide to a concentration of 1M. They were further diluted as necessary into DMEM cell culture medium, and subsequently into the first wells of the 96 Well microtiter plate. Each concentration was tested in triplicate on the target cell line. Compound concentrations from 1 μM to 3000 μM were tested. Cells were incubated with compound for 72 hours, the plates were washed, and the cells fixed with methanol and stained with crystal violet as described in Sugarman et al. ([…]) and Antelman, et al. (1995).

[3] = test system: H630R10 (colon cancer cell line); assay: Crystal violet cell proliferation assay; assay type: cell-based, human; details: for IC50: Homo sapiens
Experimental: as §1, §2, §3

[4] = test system: Primary Carcinoma (UT) breast cells; details: 19 samples; cited from earlier work
[5] = test system: Metastatic Carcinoma (UT) breast cells; details: 4 samples; cited from earlier work
[6] = test system: Metastatic Carcinoma (Rx) breast cells; details: 10 samples; cited from earlier work
[7] = Table 6, H630R10, 72 hours, standard error less than 20%

O=c1[nH]cc(F)c(=O)[nH]1 [5-Fluorouracil, 5-fluorouracil]
IC50 [1]: 0.2 µM | IC50 (Skin Fibroblast (DET551)): 1.1 µM | IC50 (Lung Epithelium (W138)): 0.4 µM | IC50 (Breast (MCF7)): 0.61 µM | IC50 (Breast (MDA 468)): 0.4 µM | IC50 (Sarcoma (Saos 2)): 11.3 µM | IC50 (Normal Cells): 0.57 µM | IC50 (Tumor Cells): 4.1 µM

O=c1[nH]c(=O)n([C@H]2C[C@H](O)[C@@H](CO)O2)cc1/C=C/Br [BVDU, (E)-5-(2-bromovinyl)-2′-deoxyuridine]
IC50 ([2]; Table 6, CCD18co, 72 hours, standard error less than 20%): 2540 ± 58.2 µM | activity in the proliferation assay ([3]; CCD18co and H630R10, Table 6 line 2): little activity | difference in sensitivity of the two cell lines ([3]; CCD18co vs H630R10): no significant difference | IC50 [3, 7]: 2880 ± 54.5 µM

O=c1[nH]c(=O)n([C@H]2C[C@H](O)[C@@H](CO)O2)cc1F [Compound 5-FUdR, 5-fluoro-2′-deoxyuridine]
IC50 ([2]; Table 7, CCD18co (normal colon epithelium), representative data from several assays, triplicate wells): 9.5 µM | fold more sensitive CCD18co than H630-R10 ([2]; normal colon epithelial CCD18co vs H630-R10 colon tumor cells): approximately 18 fold | IC50 [3, 7]: 170 ± 2.4 µM | IC50 ([3]; Table 7, H630R10 (colon cancer cell line), representative data from several assays, triplicate wells): 170 µM

COc1cccc2c1C(=O)c1c(O)c3c(c(O)c1C2=O)C[C@@](O)(C(=O)CO)C[C@@H]3O[C@H]1C[C@H](N)[C@H](O)[C@H](C)O1 [Doxorubicin, doxorubicin]
Average IC50 [4]: 0.0114 ± 0.0068 µg/mL | Average IC50 [5]: 0.036 ± 0.0263 µg/mL | Average IC50 [6]: 0.0198 ± 0.0127 µg/mL
